Data as given in ChEMBL document CHEMBL1142074, “In vitro activities of cloxyquin (5-chloroquinolin-8-ol) against Mycobacterium tuberculosis” (2007).

Columns and labels:
Format in all cases: functional
[1] = tested on: Mycobacterium tuberculosis; test: Antimycobacterial activity against pyrazinamide-resistant Mycobacterium tuberculosis H37Rv ATCC 35828 by microplate alamar blue assay
[2] = tested on: Mycobacterium tuberculosis; test: Antimycobacterial activity against cycloserine-resistant Mycobacterium tuberculosis H37Rv ATCC 35826 by microplate alamar blue assay
[3] = tested on: Mycobacterium tuberculosis; test: Antimycobacterial activity against kanamycin-resistant Mycobacterium tuberculosis H37Rv ATCC 35827 by microplate alamar blue assay
[4] = tested on: Mycobacterium tuberculosis; test: Antimycobacterial activity against ethionamide-resistant Mycobacterium tuberculosis H37Rv ATCC 35830 by microplate alamar blue assay
[5] = tested on: Mycobacterium tuberculosis; test: Antimycobacterial activity against thiacetazone-resistant Mycobacterium tuberculosis H37Rv ATCC 35829 by microplate alamar blue assay
[6] = tested on: Mycobacterium tuberculosis; test: Antimycobacterial activity against ethambutol-resistant Mycobacterium tuberculosis H37Rv ATCC 35837 by microplate alamar blue assay

Measured: MIC

Oc1ccc(Cl)c2cccnc12 [CLOXYQUIN]
0.125 µg/mL: [1] | [2] | [3] | [4] | [5] | [6]
